Test systems include NCI-H460 lung; A498 renal; SNB-19 CNS; SR leukemia; SK-OV-3 ovarian; HOP-92 NSCLC; CCRF-CEM leukemia; COLO 205 colon; HT29 colon; TK-10 renal.
Common to all, as to assay: NCI-60 cell line screen, 48 h

Where “and” joins values, the source holds several entries; their conditions need not be identical. Identical values can stand only once.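 Five compound concentrations were applied to cells in 96-well plates for 48 hours; endpoints were derived by simple linear interpolation of the resulting dose-response curve. At the GI50, growth is halved. The concentration for full growth arrest is given as TGI.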 Some results are limits rather than exact numbers.

Consider `N#CC(C(=O)CCCC(=O)Nc1ccccc1[N+](=O)[O-])c1c(Cl)cccc1Cl` (stereo not drawn), for which the TGI in the assay with NCI-H460 lung, with A498 renal, with SNB-19 CNS, in the assay on SR leukemia, in the assay on SK-OV-3 ovarian and in the assay with HOP-92 NSCLC was above 100 µM in each case. In addition, the TGI with CCRF-CEM leukemia, in the assay on COLO 205 colon, in the assay with HT29 colon and with TK-10 renal was above 100 µM in each case.
Take `CC(=O)OC(C)(C)C1CC[C@]2(C)/C=C/C(C)C[C@@H](O)/C=C(\C)CC(O)C12` (stereo partly drawn): the TGI in the assay with NCI-H460 lung, in the assay on A498 renal, with SNB-19 CNS, in the assay on SR leukemia, in the assay with SK-OV-3 ovarian and with HOP-92 NSCLC was above 100 µM throughout. The TGI in the assay with CCRF-CEM leukemia, with COLO 205 colon, in the assay with HT29 colon and in the assay with TK-10 renal was above 100 µM in each case.
For `CC1=C(CCCOC(=O)[C@H](N)CC(C)C)C2=C(C)C3(CC3)[C@@](C)(O)C(=O)C2=C1`, the GI50 was 0.375 µM in the assay with NCI-H460 lung; 1.68 µM with A498 renal; 2.88 µM in the assay with SNB-19 CNS; 12.8 µM in the assay with SR leukemia; 0.752 µM in the assay with SK-OV-3 ovarian; 0.759 µM in the assay on HOP-92 NSCLC. In addition, the GI50 is 22.9 µM with CCRF-CEM leukemia, 1.49 µM with COLO 205 colon, 2.22 µM in the assay with HT29 colon and 2.88 µM with TK-10 renal. In addition, the TGI was 11.1 µM with NCI-H460 lung; 3.66 µM in the assay with A498 renal; above 100 µM in the assay on SNB-19 CNS; above 100 µM with SR leukemia; 3.03 µM in the assay with SK-OV-3 ovarian; 3.33 µM in the assay with HOP-92 NSCLC. Also, the TGI in the assay with CCRF-CEM leukemia was above 100 µM; in the assay on COLO 205 colon, 3.42 µM; in the assay on HT29 colon, 6.02 µM; in the assay with TK-10 renal, 7.92 µM.
Turning to `CN(C)CCNC(=O)c1cc2c3cc(Cl)ccc3[nH]c2c2ncccc12`, the GI50 in the assay on NCI-H460 lung is 2.57 µM; with A498 renal, 3.52 µM; in the assay with SNB-19 CNS, 4.52 µM; with SR leukemia it was 1.68 µM; in the assay on SK-OV-3 ovarian, 6.89 µM; with HOP-92 NSCLC it was 2.36 µM. In addition, the GI50 in the assay with CCRF-CEM leukemia was 2.09 µM; with COLO 205 colon, 1.97 µM; in the assay on HT29 colon, 2.33 µM; with TK-10 renal, 3.81 µM. Moreover, the TGI in the assay on NCI-H460 lung came to 10.7 µM; in the assay on A498 renal it was 13.1 µM; in the assay on SNB-19 CNS, 19.7 µM; in the assay with SR leukemia it was 4.1 µM; with SK-OV-3 ovarian, 24.4 µM; in the assay on HOP-92 NSCLC, 11.2 µM. Also, the TGI with CCRF-CEM leukemia was 5.47 µM; in the assay on COLO 205 colon, 10.5 µM; in the assay on HT29 colon it was 10.3 µM; with TK-10 renal it was 13.4 µM.
As to `Cn1ncnc1[C@@H]1c2n[nH]c(=O)c3cc(F)cc(c23)N[C@H]1c1ccc(F)cc1`, the GI50 with NCI-H460 lung is 78.4 µM; in the assay with A498 renal, above 100 µM; in the assay on SNB-19 CNS, above 100 µM; with SR leukemia, 33.2 µM; with SK-OV-3 ovarian, above 100 µM; in the assay with HOP-92 NSCLC, 92.6 µM. Further, the GI50 with CCRF-CEM leukemia is 91.6 µM; in the assay with COLO 205 colon, above 100 µM; in the assay on HT29 colon, above 100 µM; in the assay on TK-10 renal, above 100 µM. Further, the TGI in the assay on NCI-H460 lung, with A498 renal, in the assay with SNB-19 CNS, with SR leukemia, in the assay on SK-OV-3 ovarian and in the assay on HOP-92 NSCLC was above 100 µM each time. In addition, the TGI with CCRF-CEM leukemia, with COLO 205 colon, with HT29 colon and with TK-10 renal was above 100 µM each time.
Turning to `Cc1c(Cl)cccc1C(=O)Nc1nc2c(s1)CN(C(=O)Nc1cccc(C(F)(F)F)c1)CC2`, the GI50 in the assay with NCI-H460 lung is 0.182 µM; in the assay with SNB-19 CNS, 0.307 µM; in the assay with SR leukemia, 0.0789 µM; in the assay on SK-OV-3 ovarian, 0.215 µM; with HOP-92 NSCLC, 0.18 µM; in the assay on CCRF-CEM leukemia, 0.194 µM. The GI50 in the assay on COLO 205 colon is 0.174 µM; with HT29 colon it was 0.173 µM; in the assay with TK-10 renal it was 1.56 µM. In addition, the TGI was above 17.4 µM in the assay on NCI-H460 lung; above 50 µM with SNB-19 CNS; above 50 µM with SR leukemia; above 50 µM in the assay with SK-OV-3 ovarian; 15.6 µM with HOP-92 NSCLC; above 50 µM in the assay with CCRF-CEM leukemia. For the same molecule, the results for the TGI in the assay on COLO 205 colon, with HT29 colon and in the assay with TK-10 renal were 4.36 µM, above 23.3 µM and above 50 µM, respectively.
`COc1ccc(C2COc3c(ccc(OC)c3OC)C2=O)cc1OC` (stereo not drawn): the TGI with NCI-H460 lung, in the assay with A498 renal, with SNB-19 CNS, with SR leukemia, with SK-OV-3 ovarian and in the assay with HOP-92 NSCLC was above 100 µM each time. Further, the TGI in the assay on CCRF-CEM leukemia, in the assay with COLO 205 colon, in the assay with HT29 colon and in the assay with TK-10 renal was above 100 µM in each case.
Turning to `CC[C@@]1(OP(=O)(O)O)C(=O)OCc2c1cc1n(c2=O)Cc2cc3ccccc3nc2-1`, the TGI is 0.666 µM in the assay with NCI-H460 lung; 0.559 µM and 0.96 µM in the assay on A498 renal; 39.3 µM in the assay on SNB-19 CNS; 0.0566 µM with SR leukemia; 7.98 µM and 6.46 µM in the assay with SK-OV-3 ovarian; 2.7 µM and 6.46 µM in the assay with HOP-92 NSCLC. Also, the TGI in the assay with CCRF-CEM leukemia is 0.118 µM and 0.319 µM; in the assay on COLO 205 colon it was 5.64 µM; in the assay on TK-10 renal, 88 µM. Also, the GI50 in the assay on A498 renal is 0.128 µM; in the assay on SNB-19 CNS, 0.143 µM; in the assay on SK-OV-3 ovarian, 0.105 µM; with HOP-92 NSCLC, 1.24 µM; with COLO 205 colon it was 1.21 µM; in the assay on HT29 colon it was 0.428 µM. Also, the GI50 in the assay with TK-10 renal is 4.62 µM.
In the case of `Cc1ccc(S(=O)c2ccccc2[N+](=O)[O-])cc1` (stereo not drawn), the TGI in the assay on NCI-H460 lung is above 100 µM; with A498 renal, 88.1 µM; in the assay on SNB-19 CNS, above 100 µM; with SR leukemia, above 100 µM; with SK-OV-3 ovarian, above 100 µM; in the assay on HOP-92 NSCLC, above 100 µM. The TGI in the assay on CCRF-CEM leukemia, with HT29 colon and in the assay with TK-10 renal was above 100 µM throughout.
